{"source": "patent US8192962B2", "about": "“Processes for detecting toxic substances” (Daikin Industries, Ltd., priority 2001, dated 2012)", "tested_on": "Genes belonging to other category", "assay": "DNA chip mRNA expression in yeast, genes belonging to other category (Table 9)", "type": "cell-based, Saccharomyces cerevisiae S288C", "method": "Yeast (Saccharomyces cerevisiae S288C (α SUC2mal mel gap2 CUP1)) were incubated at 25° C. on YPD medium (yeast extract 1%, polypepton 2%, glucose 2%). One of toxic chemical substances was added to the cells at logarithmic growth phase, and the cells were further incubated for two hours. Cells were cultured without any chemical substance in the same condition, and were used as control. Concentrations of the chemical substances were defined to inhibit the growth of the yeast but not lead to death.\nAfter completion of the incubation, the culture was centrifuged to collect the cells. To the cells, sodium acetate buffer (50 mM sodium acetate, 10 mM EDTA, 1% SDS) was added, and the mixture was shaken at 65° C. for five minutes, followed by returning to room temperature, and obtaining the supernatant, of which the procedures were repeated two times. To the supernatant, ½ amount of a solution of phenol/chloroform was added, and the mixture was centrifuged to give a supernatant, which was added with an equal amount of chloroform, and the mixture was centrifuged to give a supernatant. To the supernatant, an equal amount of isopropanol containing 0.3 M sodium acetate was added, and the mixture was allowed to stand at room temperature for 30 minutes, after which the mixture was centrifuged to give a sediment of the whole RNAs. Seventy % ethanol was added to the sediment, and the mixture was again centrifuged to give a sediment, which was then dried and dissolved in water. mRNA was isolated from the whole RNAs as followings. In view of the fact that a poly A chain is attached to the 3′ terminus of mRNA, a polynucleotide having a poly T structure which was immobilized on the surface of latex beads was used to trap the mRNA, and then the mRNA was washed and eluted with spine column (Oligotex-dT30<Super>mRNA Purification Kit, Takara). Reverse transcription of the mRNA was conducted with a reverse transcriptase (Super Script II Reverse Transcriptase; catalogue No. 18064-014, GibcoBRL) using fluorescence-labeled nucleotides to give cDNAs that were introduced with Cy3-dUTP or Cy5-dUTP during the reverse transcription.\nThe labeled cDNAs were dissolved in TE buffer (10mM Tris-HCl/1 mM EDTA, pH8.0), and the solution was dropped on the DNA chip containing the whole genes of yeast (DNA Chip Research Inc. Japan) so that the cDNAs were hybridized on the DNA chip at 65° C. for over 12 hours. The fluoresces intensity of the DNA chip was read with a scanner, and the ratio relative to the fluorescence intensity resulting from the absence of chemical substance was estimated as the following, which is shown in Tables 1 to 9: […]"}
{"compound": "CCCCCCCCCCCCc1ccc(S(=O)(=O)[O-])cc1.[Na+]", "note": "[(17), sodium dodecylbenzosulfonate]", "values": [{"measurement": "The level of expressed mRNA in the presence of chemical substance/The level of expressed mRNA in the absence of chemical substance", "setting": "yeast gene YKL008C", "value": 1.4}, {"measurement": "The level of expressed mRNA in the presence of chemical substance/The level of expressed mRNA in the absence of chemical substance", "setting": "yeast gene YKL013C", "value": 1.6}, {"measurement": "The level of expressed mRNA in the presence of chemical substance/The level of expressed mRNA in the absence of chemical substance", "setting": "yeast gene YKL039W", "value": 1.2}, {"measurement": "The level of expressed mRNA in the presence of chemical substance/The level of expressed mRNA in the absence of chemical substance", "setting": "yeast gene YKL096W", "value": 0.5}, {"measurement": "The level of expressed mRNA in the presence of chemical substance/The level of expressed mRNA in the absence of chemical substance", "setting": "yeast gene YKL165C", "value": 0.9}, {"measurement": "The level of expressed mRNA in the presence of chemical substance/The level of expressed mRNA in the absence of chemical substance", "setting": "yeast gene YKL193C", "value": 1.2}, {"measurement": "The level of expressed mRNA in the presence of chemical substance/The level of expressed mRNA in the absence of chemical substance", "setting": "yeast gene YLR120C", "value": 3.5}, {"measurement": "The level of expressed mRNA in the presence of chemical substance/The level of expressed mRNA in the absence of chemical substance", "setting": "yeast gene YLR136C", "value": 1.8}, {"measurement": "The level of expressed mRNA in the presence of chemical substance/The level of expressed mRNA in the absence of chemical substance", "setting": "yeast gene YLR178C", "value": 2.0}, {"measurement": "The level of expressed mRNA in the presence of chemical substance/The level of expressed mRNA in the absence of chemical substance", "setting": "yeast gene YLR250W", "value": 1.4}, {"measurement": "The level of expressed mRNA in the presence of chemical substance/The level of expressed mRNA in the absence of chemical substance", "setting": "yeast gene YLR327C", "value": 3.3}, {"measurement": "The level of expressed mRNA in the presence of chemical substance/The level of expressed mRNA in the absence of chemical substance", "setting": "yeast gene YLR356W", "value": 1.1}, {"measurement": "The level of expressed mRNA in the presence of chemical substance/The level of expressed mRNA in the absence of chemical substance", "setting": "yeast gene YLR362W", "value": 1.2}, {"measurement": "The level of expressed mRNA in the presence of chemical substance/The level of expressed mRNA in the absence of chemical substance", "setting": "yeast gene YLR391W", "value": 1.4}, {"measurement": "The level of expressed mRNA in the presence of chemical substance/The level of expressed mRNA in the absence of chemical substance", "setting": "yeast gene YLR429W", "value": 1.0}, {"measurement": "The level of expressed mRNA in the presence of chemical substance/The level of expressed mRNA in the absence of chemical substance", "setting": "yeast gene YMR004W", "value": 0.9}, {"measurement": "The level of expressed mRNA in the presence of chemical substance/The level of expressed mRNA in the absence of chemical substance", "setting": "yeast gene YMR094W", "value": 1.0}, {"measurement": "The level of expressed mRNA in the presence of chemical substance/The level of expressed mRNA in the absence of chemical substance", "setting": "yeast gene YMR104C", "value": 2.8}, {"measurement": "The level of expressed mRNA in the presence of chemical substance/The level of expressed mRNA in the absence of chemical substance", "setting": "yeast gene YMR219W", "value": 1.1}, {"measurement": "The level of expressed mRNA in the presence of chemical substance/The level of expressed mRNA in the absence of chemical substance", "setting": "yeast gene YMR226C", "value": 1.6}, {"measurement": "The level of expressed mRNA in the presence of chemical substance/The level of expressed mRNA in the absence of chemical substance", "setting": "yeast gene YMR275C", "value": 0.9}, {"measurement": "The level of expressed mRNA in the presence of chemical substance/The level of expressed mRNA in the absence of chemical substance", "setting": "yeast gene YMR276W", "value": 1.2}, {"measurement": "The level of expressed mRNA in the presence of chemical substance/The level of expressed mRNA in the absence of chemical substance", "setting": "yeast gene YMR314W", "value": 1.3}, {"measurement": "The level of expressed mRNA in the presence of chemical substance/The level of expressed mRNA in the absence of chemical substance", "setting": "yeast gene YNL006W", "value": 1.0}, {"measurement": "The level of expressed mRNA in the presence of chemical substance/The level of expressed mRNA in the absence of chemical substance", "setting": "yeast gene YNL007C", "value": 1.1}, {"measurement": "The level of expressed mRNA in the presence of chemical substance/The level of expressed mRNA in the absence of chemical substance", "setting": "yeast gene YNL093W", "value": 3.0}, {"measurement": "The level of expressed mRNA in the presence of chemical substance/The level of expressed mRNA in the absence of chemical substance", "setting": "yeast gene YNL333W", "value": 1.4}, {"measurement": "The level of expressed mRNA in the presence of chemical substance/The level of expressed mRNA in the absence of chemical substance", "setting": "yeast gene YNR010W", "value": 1.7}, {"measurement": "The level of expressed mRNA in the presence of chemical substance/The level of expressed mRNA in the absence of chemical substance", "setting": "yeast gene YNR069C", "value": 1.1}, {"measurement": "The level of expressed mRNA in the presence of chemical substance/The level of expressed mRNA in the absence of chemical substance", "setting": "yeast gene YOL013C", "value": 1.1}, {"measurement": "The level of expressed mRNA in the presence of chemical substance/The level of expressed mRNA in the absence of chemical substance", "setting": "yeast gene YOL164W", "value": 1.1}, {"measurement": "The level of expressed mRNA in the presence of chemical substance/The level of expressed mRNA in the absence of chemical substance", "setting": "yeast gene YOR036W", "value": 1.6}, {"measurement": "The level of expressed mRNA in the presence of chemical substance/The level of expressed mRNA in the absence of chemical substance", "setting": "yeast gene YOR117W", "value": 1.4}, {"measurement": "The level of expressed mRNA in the presence of chemical substance/The level of expressed mRNA in the absence of chemical substance", "setting": "yeast gene YOR124C", "value": 1.0}, {"measurement": "The level of expressed mRNA in the presence of chemical substance/The level of expressed mRNA in the absence of chemical substance", "setting": "yeast gene YOR132W", "value": 1.2}, {"measurement": "The level of expressed mRNA in the presence of chemical substance/The level of expressed mRNA in the absence of chemical substance", "setting": "yeast gene YOR157C", "value": 1.2}, {"measurement": "The level of expressed mRNA in the presence of chemical substance/The level of expressed mRNA in the absence of chemical substance", "setting": "yeast gene YOR181W", "value": 1.1}, {"measurement": "The level of expressed mRNA in the presence of chemical substance/The level of expressed mRNA in the absence of chemical substance", "setting": "yeast gene YOR185C", "value": 0.9}, {"measurement": "The level of expressed mRNA in the presence of chemical substance/The level of expressed mRNA in the absence of chemical substance", "setting": "yeast gene YOR198C", "value": 1.1}, {"measurement": "The level of expressed mRNA in the presence of chemical substance/The level of expressed mRNA in the absence of chemical substance", "setting": "yeast gene YOR259C", "value": 0.9}, {"measurement": "The level of expressed mRNA in the presence of chemical substance/The level of expressed mRNA in the absence of chemical substance", "setting": "yeast gene YOR261C", "value": 1.0}, {"measurement": "The level of expressed mRNA in the presence of chemical substance/The level of expressed mRNA in the absence of chemical substance", "setting": "yeast gene YOR288C", "value": 1.5}, {"measurement": "The level of expressed mRNA in the presence of chemical substance/The level of expressed mRNA in the absence of chemical substance", "setting": "yeast gene YOR355W", "value": 0.8}, {"measurement": "The level of expressed mRNA in the presence of chemical substance/The level of expressed mRNA in the absence of chemical substance", "setting": "yeast gene YOR383C", "value": 1.4}, {"measurement": "The level of expressed mRNA in the presence of chemical substance/The level of expressed mRNA in the absence of chemical substance", "setting": "yeast gene YPL089C", "value": 1.5}, {"measurement": "The level of expressed mRNA in the presence of chemical substance/The level of expressed mRNA in the absence of chemical substance", "setting": "yeast gene YPL109C", "value": 1.2}, {"measurement": "The level of expressed mRNA in the presence of chemical substance/The level of expressed mRNA in the absence of chemical substance", "setting": "yeast gene YPL149W", "value": 2.2}, {"measurement": "The level of expressed mRNA in the presence of chemical substance/The level of expressed mRNA in the absence of chemical substance", "setting": "yeast gene YPL154C", "value": 1.6}, {"measurement": "The level of expressed mRNA in the presence of chemical substance/The level of expressed mRNA in the absence of chemical substance", "setting": "yeast gene YPR103W", "value": 1.2}, {"measurement": "The level of expressed mRNA in the presence of chemical substance/The level of expressed mRNA in the absence of chemical substance", "setting": "yeast gene YPR108W", "value": 1.0}]}
